Assay results as given in US10723741B1, “DNA polymerase IIIC inhibitors and use thereof” (Acurx Pharmaceuticals, LLC, priority 2018, dated 2020).

Target: T1, Staphylococcus aureus DNA pol IIIC enzyme (Staphylococcus aureus, UniProt Q5HGG7)
T1 construct: The recombinant protein had full length of original protein and a His tag, a thrombin site and a T7 tag at N-terminus; His tag (N); thrombin site (N); T7 tag (N); made in house; host or cells: E. coli BL21 (DE3), plasmid pET-28a(+)
T1 sequence (Q5HGG7 1-1438): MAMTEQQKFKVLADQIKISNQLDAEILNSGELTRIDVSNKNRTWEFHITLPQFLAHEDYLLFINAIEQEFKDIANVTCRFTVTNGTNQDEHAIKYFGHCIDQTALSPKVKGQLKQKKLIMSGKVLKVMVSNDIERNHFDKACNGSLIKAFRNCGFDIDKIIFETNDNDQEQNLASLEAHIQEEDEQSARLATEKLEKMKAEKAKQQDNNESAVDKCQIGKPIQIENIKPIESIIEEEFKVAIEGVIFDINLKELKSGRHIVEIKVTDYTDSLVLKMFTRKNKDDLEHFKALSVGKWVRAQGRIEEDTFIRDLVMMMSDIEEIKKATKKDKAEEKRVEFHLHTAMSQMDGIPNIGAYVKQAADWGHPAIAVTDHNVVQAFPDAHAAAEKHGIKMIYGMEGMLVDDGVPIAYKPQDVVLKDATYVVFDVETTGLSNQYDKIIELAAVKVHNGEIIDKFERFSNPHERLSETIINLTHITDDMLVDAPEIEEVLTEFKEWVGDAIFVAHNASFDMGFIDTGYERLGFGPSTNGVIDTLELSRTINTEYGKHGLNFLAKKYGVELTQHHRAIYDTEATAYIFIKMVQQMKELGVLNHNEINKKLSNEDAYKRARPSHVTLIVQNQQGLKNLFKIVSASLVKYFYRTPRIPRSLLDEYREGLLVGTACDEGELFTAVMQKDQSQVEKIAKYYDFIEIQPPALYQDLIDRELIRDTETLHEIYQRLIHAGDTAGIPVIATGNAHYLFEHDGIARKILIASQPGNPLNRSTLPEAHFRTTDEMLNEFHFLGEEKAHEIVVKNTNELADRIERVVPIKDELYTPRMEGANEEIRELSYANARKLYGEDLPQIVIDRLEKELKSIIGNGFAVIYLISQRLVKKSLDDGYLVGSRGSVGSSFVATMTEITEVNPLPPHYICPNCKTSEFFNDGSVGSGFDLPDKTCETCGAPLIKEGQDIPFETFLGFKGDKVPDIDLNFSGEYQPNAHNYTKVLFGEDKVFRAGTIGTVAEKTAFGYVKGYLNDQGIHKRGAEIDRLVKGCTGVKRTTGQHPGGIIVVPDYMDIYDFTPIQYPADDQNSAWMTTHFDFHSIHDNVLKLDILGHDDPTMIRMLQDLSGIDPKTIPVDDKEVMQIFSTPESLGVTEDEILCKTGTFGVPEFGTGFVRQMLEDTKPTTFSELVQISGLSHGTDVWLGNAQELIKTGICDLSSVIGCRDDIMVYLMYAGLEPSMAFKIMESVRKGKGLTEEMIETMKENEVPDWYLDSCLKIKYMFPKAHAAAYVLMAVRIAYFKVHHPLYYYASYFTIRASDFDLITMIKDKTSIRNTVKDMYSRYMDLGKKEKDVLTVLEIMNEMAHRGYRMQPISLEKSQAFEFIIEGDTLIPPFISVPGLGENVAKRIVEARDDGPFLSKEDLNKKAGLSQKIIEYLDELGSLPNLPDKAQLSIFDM
Assay: Ki assay for DNA polymerase IIIC (3H-dTTP incorporation, truncated assay)
Format: biochemical
Conditions: Ki = concentration giving 50% inhibition of control activity; range stated for the listed group; read-out: Ki against Staphylococcus aureus DNA pol IIIC enzyme
From the text: The ability of a compound to inhibit the activity of DNA pol IIIC enzyme can be tested by using a DNA polymerase assay as described, for example, in Barnes and Brown, Nucl. Acids Res. 1979, 6, 1203-1219; Trantolo et al., J. Med. Chem. 1986, 29, 676-681; Mills et al., J. Bacterial. 1977, 132, 641-649; Low et al., J. Biol. Chem. 1976, 251, 1311-1325. This rapid screening method can use natural or recombinant DNA pol III enzymes in a standard DNA polymerase activity assay. By including a test compound in a side-by-side assay with a control, the effect of the test compound on polymerase activity can be assessed. Compounds with an appropriate level (Ki<[…]) of inhibition of the natural or recombinant bacterial DNA polymerase III are preferred.
The DNA polymerase IIIC coding genes were amplified from genomic DNA. The primers were designed so the 5′-terminal and 3′-terminal contain BamHI and XhoI cutting site respectively. The fragment was directly inserted into expression plasmid pET-28a(+) between BamHI and XhoI sites. The recombinant protein had full length of original protein and a His tag, a thrombin site and a T7 tag at N-terminus. The coding sequence of recombinant protein was confirmed by Sanger sequencing using 8 primers to cover the entire coding regions.
The plasmid was transferred into BL21 (DE3) competent E. coli cells. The positive colonies were inoculated into 1 L LB medium and incubated at 37° C. with 200 rpm rotation to reach OD600=0.6. The inducer IPTG 1 mM was then added to induce the expression for 18 hours at 16° C. The cells were harvested and suspended in lysis buffer (25 mM Tris-HCl pH=7.5, 0.15 M NaCl, 20 mM imidazole, 2 mM β-mecaptoethanol and 1×Roche proteinase inhibitor cocktail). The cells were lyzed by sonication, and the debris was spun down at 50000 g for 1 hour.
The protein was isolated first by passing through the lysate through Ni column. The column was washed with 50 column volume (CV) binding buffer (lysis buffer without proteinase inhibitor) and then 10 CVs of washing buffer (binding buffer with total 40 mM imidazole). The protein was eluted out with elusion buffer (binding buffer with total 300 mM imidazole).
The crude extract was then further purified by size exclusion chromatography using a Superdex 200 increase 10/300 column with 25 mM Tris-HCl pH 7.5, 0.15 M NaCl, 5% Glycerol and 1 mM DTT. The final product was stored as 50-100 μL aliquots at −80° C.
The compounds were dissolved in DMSO to 1 mg/ml (or 10 mg/ml) as compound working solution. On the day of the test, […] of DMSO was added into well A, and 100 μL of DMSO was added into wells B through well H in a round bottom 96 well plate (Corning-3788). An aliquot of 20 μL compound working solution was added into well A and mixed by pipetting. From well A, […] solution was transferred to well B and mixed by pipetting to make a 3 x dilution. The procedure was repeated for well B to well C, and so forth until well G. Well H contained DMSO only. This generated a serial of compound working solutions with concentrations at 100, 33.3, 11.1, 3.7, 1.2, 0.4, 0.14, and 0 μg/ml in pure DMSO. This was deemed the ‘mother plate’.
Using a 96-head pipette station (CyBio), 1 μL compound working solutions were transferred from the mother plate into an identical 96-well plate. This was the ‘testing plate’. The testing plate was kept at room temperature.
The enzyme (DNA polymerase IIIC) samples were taken out from −80° C. freezer. It was thawed and kept on ice. The enzyme was diluted to 0.025-0.06 U/μL with dilution buffer (25 mM Tris-HCl, pH=7.5, 0.15M NaCl, 5% Glycerol, 1 mM DTT). One unit of enzyme is defined as the amount of enzyme could incorporate 250 μmole of dTTP in 30 minutes in a standard assay (with the presence of all nucleotide as substrate, in contrast to “truncated assay” from which dGTP was omitted) in the same system. The diluted enzymes were added into a new 96-well plate (Corning-3788) 20 μL per well. This plate was kept on ice. […]

Structure (SMILES) | Ki
CN(C)CCOCCn1ncc2nc(NCc3ccc(Cl)c(Cl)c3)[nH]c(=O)c21.Cl [Compound 211, 5-((3,4-dichlorobenzyl)amino)-1-(2-(2-(dimethylamino)ethoxy)ethyl)-1H-pyrazolo[4,3-d]pyrimidin-7(6H)-one hydrochloride] | 0.053 to 1 µM
O=c1[nH]c(NCc2ccc(Cl)c(Cl)c2)nc2cnn(-c3ccccc3)c12 [Compound 212, 5-[(3,4-dichlorophenyl)methylamino]-1-phenyl-6H-pyrazolo[4,3-d]pyrimidin-7-one] | 0.053 to 1 µM
O=c1[nH]c(NCc2ccc(Cl)c(Cl)c2)nc2cnn(C3CC3)c12 [Compound 213, 1-Cyclopropyl-5-((3,4-dichlorobenzyl)amino)-1H-pyrazolo[4,3-d]pyrimidin-7(6H)-one] | 0.053 to 1 µM
O=c1[nH]c(NCc2ccc(Cl)c(Cl)c2)nc2cnn(C3CCCC3)c12 [Compound 214, 1-cyclopentyl-5-((3,4-dichlorobenzyl)amino)-1H-pyrazolo[4,3-d]pyrimidin-7(6H)-one] | 0.053 to 1 µM
COC(=O)CCCCn1ncc2nc(NCc3ccc(Cl)c(Cl)c3)[nH]c(=O)c21 [Compound 218, methyl 5-[5-[(3,4-dichlorophenyl)methylamino]-7-oxo-6H-pyrazolo[4,3-d]pyrimidin-1-yl]pentanoate] | 0.053 to 1 µM
Cl.O=c1[nH]c(NCc2ccc(Cl)c(Cl)c2)nc2cnn(C3CCN(C4CCOCC4)CC3)c12 [Compound 242, 5-((3,4-dichlorobenzyl)amino)-1-(1-(tetrahydro-2H-pyran-4-yl)piperidin-4-yl)-1H-pyrazolo[4,3-d]pyrimidin-7(6H)-one hydrochloride] | 0.053 to 1 µM
O=C(O)CCC(=O)N1CCC(n2ncc3nc(NCc4ccc(Cl)c(Cl)c4)[nH]c(=O)c32)CC1 [Compound 273, 4-(4-(5-((3,4-dichlorobenzyl)amino)-7-oxo-6,7-dihydro-1H-pyrazolo[4,3-d]pyrimidin-1-yl)piperidin-1-yl)-4-oxobutanoic Acid] | 0.053 to 1 µM
O=C([C@@H](O)[C@H](O)CO)N1CCC(n2ncc3nc(NCc4ccc(Cl)c(Cl)c4)[nH]c(=O)c32)CC1 [Compound 276, 5-((3,4-dichlorobenzyl)amino)-1-(1-((2S,3R)-2,3,4-trihydroxybutanoyl)piperidin-4-yl)-1H-pyrazolo[4,3-d]pyrimidin-7(6H)-one] | 0.053 to 1 µM

Second part, the compound after the results:

Ki | Structure (SMILES)
0.053 to 1 µM | Cn1ncc2nc(NCc3ccc(Cl)c(Cl)c3)[nH]c(=O)c21 [Compound 2, 5-((3,4-Dichlorobenzyl)amino)-1-methyl-1H-pyrazolo[4,3-d]pyrimidin-7(6H)-one]
0.053 to 1 µM | Cc1nn(C)c2c(=O)[nH]c(NCc3ccc(Cl)c(Cl)c3)nc12 [Compound 44, 5-((3,4-dichlorobenzyl)amino)-1,3-dimethyl-1H-pyrazolo[4,3-d]pyrimidin-7(6H)-one]
0.053 to 1 µM | C=CCn1ncc2nc(NCc3ccc(Cl)c(Cl)c3)[nH]c(=O)c21 [Compound 56, 1-allyl-5-((3,4-dichlorobenzyl)amino)-1H-pyrazolo[4,3-d]pyrimidin-7(6H)-one]
0.053 to 1 µM | O=c1[nH]c(NCc2ccc(Cl)c(Cl)c2)nc2cn[nH]c12 [Compound 77, 5-((3,4-dichlorobenzyl)amino)-1H-pyrazolo[4,3-d]pyrimidin-7(6H)-one]
0.053 to 1 µM | COCCn1ncc2nc(NCc3ccc(Cl)c(Cl)c3)[nH]c(=O)c21 [Compound 126, 5-((3,4-dichlorobenzyl)amino)-1-(2-methoxyethyl)-1H-pyrazolo[4,3-d]pyrimidin-7(6H)-one]
0.053 to 1 µM | Cl.O=c1[nH]c(NCc2ccc(Cl)c(Cl)c2)nc2cnn(CC3CNCCO3)c12 (stereo not drawn) [Compound 149, 5-((3,4-dichlorobenzyl)amino)-1-(morpholin-2-ylmethyl)-1H-pyrazolo[4,3-d]pyrimidin-7(6H)-one hydrochloride]
0.053 to 1 µM | Cl.Cl.O=c1[nH]c(NCc2ccc(Cl)c(Cl)c2)nc2cnn(CCOCCN3CCNCC3)c12 [Compound 167, 5-[(3,4-dichlorophenyl)methylamino]-1-[2-(2-piperazin-1-ylethoxy)ethyl]-6H-pyrazolo[4,3-d]pyrimidin-7-one]
